Data on two molecules can be found in patent US20080096974A2, “Polyamine-Metal Chelator Conjugates” (University of Florida Research Foundation, Inc., priority 2003, published 2008).

Data set [1] concerns Murine L1210 leukemia cells. The data set is described as follows: L1210 cell growth inhibition (IC50). In kind it is cell-based. As to the method:
Murine L1210 leukemia cells were maintained in logarithmic growth as a suspension culture in RPMI-1640 medium (Gibco, Grand Island, N.Y.) containing 10% fetal bovine serum (Gibco), 2% HEPES-MOPS buffer, 1 mM L-glutamine (Gibco), and 1 mM aminoguanidine at 37° C. in a water-jacketed 5% CO2 incubator.
Cells were grown in 25 cm^2 tissue culture flasks in a total volume of 10 mL. Cultures were treated during logarithmic growth (0.5−1.0×10^5 cells/mL) with the compounds of interest, reseeded, and incubated as described in Bergeron, R. J., Müller, R., Bussenius, J., McManis, J. S., Merriman, R. L., Smith, R. E., Yao, H., Weimar, W. R., “Synthesis and Evaluation of Hydroxylated Polyamine Analogues as Antiproliferatives,” J. Med. Chem 43: 224-235 (2000). Cell counting and calculation of percent of control growth were also carried out as described in Bergeron, et al. The IC50 is defined as the concentration of compound necessary to reduce cell growth to 50% of control growth after defined intervals of exposure.

The test system of data set [2] is L1210 leukemia cells. Particulars: extracellular 30 μM; cited from earlier work.
Data set [3] concerns Adenosylmethionine decarboxylase (AdoMet DC). The data set is described as follows: AdoMetDC activity in treated L1210 cells. In kind it is cell-based, murine. On the procedure: Ornithine decarboxylase (ODC) and Adenosylmethionine decarboxylase (AdoMet DC) activities were determined according to the procedures of Seely, J. E., Pegg, A. E., “Ornithine Decarboxylase (Mouse Kidney),” Methods Enzymol. 94: 158-161 (1983) and Pegg, A. E., Pösö, H., “S-Adenosylmethionine Decarboxylase (Rat Liver),” Methods Enzymol. 94: 234-239 (1983), respectively, on the basis of quantitation of ^14CO2 released from [^14C]carboxyl-labeled L-ornithine or S-adenosyl-L-methionine. Included in each assay were untreated L210 cells as negative controls as well as cells treated with DEHSPM, a drug having a known reproducible effect on each enzyme, as positive controls.

The next data set has as its target polyamine transporter. The settings on record: L1210 cell suspensions; read-out: Ki, competition for the polyamine transport apparatus (historical numbers); cited from earlier work.
Data set [4] has as its system polyamine pools in L1210 cells. In words: Effect on native polyamine pools in L1210 cells (HPLC). In kind it is cell-based, murine. Particulars: L1210 cells, treatment concentration 100 μM.
Method: At the end of the treatment period, cell suspensions were sampled, washed three times in ice-cold, incomplete medium, and pelleted for extraction using 0.6 N perchloric acid, then freeze-fractured in liquid nitrogen/hot water three times. Each supernatant was frozen at −20° C. until analysis of polyamine content by HPLC. […] The buffer consisted of potassium phosphate (10 mM) and EDTA (2 mM), pH 2.9.
The subject of data set [5] is Murine L1210 leukemia cells. Particulars: cited from earlier work.
Data set [6] concerns L1210 leukemia cells. The data set is described as follows: Intracellular concentration / accumulation of analogue in L1210 cells (HPLC). The settings on record: treatment concentration 100 μM.
Method: At the end of the treatment period, cell suspensions were sampled, washed three times in ice-cold, incomplete medium, and pelleted for extraction using 0.6 N perchloric acid, then freeze-fractured in liquid nitrogen/hot water three times.
During logarithmic growth, cells were treated with the compounds. At the end of the treatment period, cell suspensions were sampled, washed three times in ice-cold, incomplete medium, and pelleted for extraction using 0.6 N perchloric acid, then freeze-fractured in liquid nitrogen/hot water three times. Each supernatant was frozen at −20° C. until analysis of analogue content by HPLC,
Analytical separation was performed on a Waters Symmetry C18 column (250 mm×4.6 mm, 5 μm) with a guard column using a Rainin Instrument Company HPLC system. The buffer employed was sodium octanesulfonate (2.5 mM) in potassium phosphate (25 mM), pH 3.0. Mobile phase A consisted of 5% CH3CN, 95% buffer; mobile phase B consisted of 60% CH3CN, 40% buffer. The solvent gradient program employed a linear gradient that increased from 20% mobile phase B to 40% mobile phase B over 40 min and a 5-min ramp to 100% B over 5 min. Post-column derivatization used a boric acid buffer system (H3BO3, 3.1% w/v; KOH, 2.6% w/v; 2-mercaptoethanol, 0.6% v/v) that contained o-phthaldialdehyde (10 mL of a 4% w/v solution in CH3OH per L of buffer). The flow rate was 0.4 mL/min, isocratic; UV detection (λex, 340 nm; λem, 445 nm) was utilized.
Analytical separation was performed on a reversed-phase Supelco Discovery RP Amide C16 column (150×4.6 mm, 5 μm) on the system described above, and UV detection was at 300 nm. The mobile phases were pumped at a flow rate of 1.5 mL/min. The buffer and mobile phases A and B were the same as described above. The solvent gradient program employed an initial 10-min isocratic portion with 5% mobile phase B (95% A), followed by a linear gradient increase to 80% mobile phase B at 35 min, a 5-min ramp to 100% B held for 10 min, and ramping back to 5% mobile phase B for 8 min (58-65 min total).
In both cases, the concentrations were calculated from the peak area fitted to calibration curves by nonweighted least squares linear regression with Rainin Dynamax HPLC Method Manager software (Rainin Instrument Co.).
In data set [7] the test system is Spermidine/spermine N^1-acetyl transferase (SSAT). The data set is described as follows: SSAT activity in treated L1210 cells. In kind it is cell-based, murine. The text has this: Spermidine/spermine N^1-acetyl transferase (SSAT) activity was based on quantitation of [^14C]-N^1-acetylspermidine formed by acetylation of SPD with [^14C]-acetyl coenzyme A according to the method of Libby, P. R., Bergeron, R. J., Porter, C. W., “Structure-Function Correlations of Polyamine Analog-Induced Increases in Spermidine/Spermine Acetyltransferase Activity,” Biochem. Pharmacol. 38: 1435-1442 (1989). Cells treated with DENSPM were positive controls.

Where two headings read alike, the source gives them in different places.

By IC50 is commonly meant the point on the concentration scale where inhibition reaches its midpoint. In the case of `CCNCCCNCCCCNCCCNCC` [DESPM], the IC50 is 30 µM in data set [1] (48 h exposure, read-out: IC50, 48 h) and 0.2 µM in data set [1] (96 h exposure, read-out: IC50, 96 h). Further, in the data set with L1210 leukemia cells [2], the “intracellular level (previous studies)” value is 400 µM.

Usually Ki stands for a dissociation constant, usually derived from enzyme kinetics or from competition with a known ligand. Turning to `CCCNCCCCNCCCN` [MPSPD(N^8), N^8-propylspermidine], the “AdoMetDC activity, % of control” value in data set [3] is on record as 64 % of control. For the same molecule, the Ki on polyamine transporter was 8.5 µM. Moreover, in data set [4], the “putrescine, percent of control” value is “lowered” and the “spermidine, percent of control” value is reported as “lowered”. Further, the activity at 100 µM in data set [4] (Mus musculus, read-out: spermine, percent of control) is 103%. The concentration for half-maximal inhibition (IC50) in data set [5] (48 h exposure, read-out: IC50, 48 h (historical numbers)) is greater than 100 µM. The IC50 in data set [5] (96 h exposure, read-out: IC50, 96 h (historical numbers)) was 55 µM. Further, the “intracellular concentration (analogue accumulation)” value with L1210 leukemia cells [6] came out at 3.52 mM. Also, in data set [7], the “SSAT activity, % of control” value is reported as 500 % of control.
